The subject of assay [1] is Dengue virus type 2 (DENV-2). Put plainly: microbe, parasite or virus in culture. The settings on record: read-out: DENV-2 EC50. In kind it is cell-based.
A further assay has as its system Yellow Fever (YFV). Put plainly: microbe, parasite or virus in culture. In kind it is cell-based, Yellow Fever virus. As to conditions: read-out: YFV EC50.
Setting [2] is: Yellow fever virus, BHK-21, 144 h.

Where two headings read alike, the source gives them in different places.

As a reminder, the EC50 is the concentration at which the effect is half-maximal.

Take `CNc1nc(N)nc2c1ncn2[C@@H]1O[C@H](CO[P@@](=O)(N[C@@H](C)C(=O)OC(C)C)Oc2ccccc2)[C@@H](O)[C@@]1(C)F` [Compound 205, isopropyl ((((R,S)-(2R,3R,4R,5R)-5-(2-amino-6-(methylamino)-9H-purin-9-yl)-4-fluoro-3-hydroxy-4-methyltetrahydrofuran-2-yl)methoxy)-phenoxy-phosphoryl)-L-alaninate]: the concentration for a half-maximal effect (EC50) in assay [1] (Dengue virus, DENV2, 144 h) came to 0.8 µM; in the assay with Yellow Fever (YFV) (setting [2]), 1.2 µM.
Take `C#C[C@@]1(F)[C@H](O)[C@@H](COP(=O)(N[C@@H](C)C(=O)OC(C)C)Oc2ccccc2)O[C@H]1n1cnc2c(NC3CC3)nc(N)nc21` (stereo partly drawn) [Compound 6, (2S)-Isopropyl 2-(((((2R,3R,4R,5R)-5-(2-amino-6-(cyclopropylamino)-9H-purin-9-yl)-4-ethynyl-4-fluoro-3-hydroxytetrahydrofuran-2-yl)methoxy)phenoxy)phosphoryl)amino) propanoate]: the 50% effective concentration (EC50) in assay [1] came out at 42 µM.
Consider `C#C[C@@]1(F)[C@H](O)[C@@H](COP(=O)(N[C@@H](C)C(=O)OC(C)C)Oc2ccccc2)O[C@H]1n1cnc2c(N(C)C)nc(N)nc21` (mixture of isomers) [Compound 2, (2S)-Isopropyl 2-(((((2R,3R,4R,5R)-5-(2-amino-6-(dimethylamino)-9H-purin-9-yl)-4-ethynyl-4-fluoro-3-hydroxytetrahydrofuran-2-yl)methoxy)(phenoxy)phosphoryl)amino) propanoate], for which the EC50 in assay [1] (Dengue virus, DENV2, 144 h) was 72.5 µM; with Yellow Fever (YFV) (setting [2]) it was 12.6 µM.
The corresponding values for `CC(C)OC(=O)[C@H](C)N[P@](=O)(OC[C@H]1C(C)[C@@H](n2cnc3c(N)ncnc32)[C@H](O)[C@@H]1O)Oc1ccccc1` (stereo partly drawn) [Compound 204, (2S)-Isopropyl 2-(((S)-(((1R,3R,4S,5R)-3-(6-amino-9H-purin-9-yl)-4,5-dihydroxy-2-methylcyclopentyl)methoxy)(phenoxy)phosphoryl)amino)propanoate] are over 2.1 µM and over 2.1 µM.
With `C#C[C@@]1(F)[C@H](O)[C@@H](COP(=O)(N[C@@H](C)C(=O)OC(C)C)Oc2ccccc2)O[C@H]1n1cnc2c(NC)nc(N)nc21` (stereo partly drawn) [Compound 4, (2S)-Isopropyl 2-(((((2R,3R,4R,5R)-5-(2-amino-6-(methylamino)-9H-purin-9-yl)-4-ethynyl-4-fluoro-3-hydroxytetrahydrofuran-2-yl)methoxy)phenoxy)phosphoryl)-amino) Propanoate], the EC50 in assay [1] is 612 µM; in the assay with Yellow Fever (YFV), 7 µM.
On to `CC1[C@@H](n2cnc3c(N)ncnc32)[C@H](O)[C@H](O)[C@H]1CO` (some centres unmarked) [Compound 206], for which the EC50 in assay [1] (Dengue virus, DENV2, 144 h) turned out to be 1.83 µM; with Yellow Fever (YFV) (setting [2]), 2.3 µM.

These data come from US10946033B2, “2′-substituted-N6-substituted purine nucleotides for RNA virus treatment” (priority 2016, dated 2021).
